Test results reported in ChEMBL document CHEMBL1128399, “Annulated heterocyclic bioisosteres of norarecoline. Synthesis and molecular pharmacology at five recombinant human muscarinic acetylcholine receptors” (J Med Chem, 1995).

Experiments:
[1] = target: Muscarinic acetylcholine receptor; assay: In vitro binding affinity to the Muscarinic acetylcholine receptor by displacing [3H]PZ from the rat brain tissues
[2] = target: Muscarinic acetylcholine receptor; assay: In vitro binding affinity to the Muscarinic acetylcholine receptor by displacing [3H]QNB from the rat brain tissues
[3] = target: Muscarinic acetylcholine receptor; assay: In vitro binding affinity to the Muscarinic acetylcholine receptor by displacing [3H]-QNB from the rat heart tissues; type: protein assay
[4] = target: Muscarinic acetylcholine receptor; assay: In vitro binding affinity to the Muscarinic acetylcholine receptor by displacing [3H]- Oxo-M from the rat brain tissues
[5] = target: T1, Muscarinic acetylcholine receptor M1 (Homo sapiens, UniProt P11229); assay: In Vitro evaluation activity at the cloned Human Muscarinic acetylcholine receptor M1 determined by receptor selection and amplification technology (R-SAT)
T1 sequence (P11229 whole entry): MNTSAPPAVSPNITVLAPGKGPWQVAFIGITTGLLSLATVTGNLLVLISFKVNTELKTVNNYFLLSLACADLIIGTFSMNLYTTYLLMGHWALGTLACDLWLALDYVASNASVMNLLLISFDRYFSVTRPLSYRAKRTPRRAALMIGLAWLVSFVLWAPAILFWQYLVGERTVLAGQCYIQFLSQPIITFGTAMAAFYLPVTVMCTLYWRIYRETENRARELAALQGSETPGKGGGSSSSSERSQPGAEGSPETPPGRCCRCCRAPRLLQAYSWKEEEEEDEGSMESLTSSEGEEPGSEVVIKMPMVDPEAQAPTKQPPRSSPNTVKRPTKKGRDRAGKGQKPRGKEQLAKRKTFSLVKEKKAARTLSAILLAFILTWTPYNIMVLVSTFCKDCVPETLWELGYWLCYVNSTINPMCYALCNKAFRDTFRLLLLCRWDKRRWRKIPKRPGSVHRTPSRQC

[6] = target: T2, Muscarinic acetylcholine receptor M2 (Homo sapiens, UniProt P08172); assay: In Vitro activity at the cloned Human Muscarinic acetylcholine receptor M2 determined by receptor selection and amplification technology (R-SAT).
T2 sequence (P08172 whole entry): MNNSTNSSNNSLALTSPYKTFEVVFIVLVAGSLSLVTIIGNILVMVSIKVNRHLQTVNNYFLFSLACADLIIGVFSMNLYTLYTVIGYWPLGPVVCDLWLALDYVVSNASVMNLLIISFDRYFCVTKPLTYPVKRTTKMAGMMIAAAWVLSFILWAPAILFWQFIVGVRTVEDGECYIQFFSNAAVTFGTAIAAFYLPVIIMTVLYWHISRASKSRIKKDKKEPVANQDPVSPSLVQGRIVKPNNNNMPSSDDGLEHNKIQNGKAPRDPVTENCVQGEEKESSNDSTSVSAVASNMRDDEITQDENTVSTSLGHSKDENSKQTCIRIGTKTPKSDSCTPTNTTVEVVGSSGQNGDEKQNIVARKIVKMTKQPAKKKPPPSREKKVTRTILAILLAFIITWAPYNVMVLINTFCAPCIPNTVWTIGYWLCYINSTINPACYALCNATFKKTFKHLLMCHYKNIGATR

[7] = target: Muscarinic acetylcholine receptor M3 (Homo sapiens, UniProt P20309); assay: In Vitro activity at the cloned Human Muscarinic acetylcholine receptor M3 determined by receptor selection and amplification technology (R-SAT)
[8] = target: T3, Muscarinic acetylcholine receptor M5 (Homo sapiens, UniProt P08912); assay: In Vitro activity at the cloned Human Muscarinic acetylcholine receptor M5 determined by receptor selection and amplification technology (R-SAT)
T3 sequence (P08912 whole entry): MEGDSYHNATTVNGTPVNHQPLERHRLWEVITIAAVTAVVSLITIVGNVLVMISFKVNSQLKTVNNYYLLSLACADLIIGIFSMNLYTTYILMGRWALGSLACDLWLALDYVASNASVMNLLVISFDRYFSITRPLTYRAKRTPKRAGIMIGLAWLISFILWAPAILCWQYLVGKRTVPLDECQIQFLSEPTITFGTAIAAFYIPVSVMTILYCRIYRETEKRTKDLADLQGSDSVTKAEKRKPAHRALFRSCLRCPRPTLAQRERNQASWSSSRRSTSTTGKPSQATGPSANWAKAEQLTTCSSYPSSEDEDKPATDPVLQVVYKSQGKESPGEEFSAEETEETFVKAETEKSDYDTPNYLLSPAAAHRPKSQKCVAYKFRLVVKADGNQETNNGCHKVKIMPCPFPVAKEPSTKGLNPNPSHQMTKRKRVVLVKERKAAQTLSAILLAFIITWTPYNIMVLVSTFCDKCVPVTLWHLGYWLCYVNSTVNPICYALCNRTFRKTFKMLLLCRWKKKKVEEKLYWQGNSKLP

[9] = target: T4, Muscarinic acetylcholine receptor M4 (Homo sapiens, UniProt P08173); assay: In Vitro activity at the cloned Human Muscarinic acetylcholine receptor M4 determined by receptor selection and amplification technology (R-SAT)
T4 sequence (P08173 whole entry): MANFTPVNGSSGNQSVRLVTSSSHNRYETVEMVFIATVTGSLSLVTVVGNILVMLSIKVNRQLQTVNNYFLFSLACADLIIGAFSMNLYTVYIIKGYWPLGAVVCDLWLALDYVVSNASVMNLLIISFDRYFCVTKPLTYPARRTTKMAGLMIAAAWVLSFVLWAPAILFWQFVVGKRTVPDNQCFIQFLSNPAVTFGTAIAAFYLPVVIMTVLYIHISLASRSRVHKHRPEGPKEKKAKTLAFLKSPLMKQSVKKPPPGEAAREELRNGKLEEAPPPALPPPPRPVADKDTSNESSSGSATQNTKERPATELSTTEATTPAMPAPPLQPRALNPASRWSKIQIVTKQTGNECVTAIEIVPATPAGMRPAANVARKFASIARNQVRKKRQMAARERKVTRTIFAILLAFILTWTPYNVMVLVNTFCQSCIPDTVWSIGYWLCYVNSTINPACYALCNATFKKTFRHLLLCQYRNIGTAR

[10] = target: Muscarinic acetylcholine receptor; assay: In vitro binding affinity to the Muscarinic acetylcholine receptor by displacing [3H]OXO-M from the rat brain tissues
[11] = tested on: Muscarinic acetylcholine receptors (Rattus norvegicus); assay: Relative efficacy and M1 selectivity by agonist index.

Muscarinic acetylcholine receptor M3, sequence (P20309 whole entry): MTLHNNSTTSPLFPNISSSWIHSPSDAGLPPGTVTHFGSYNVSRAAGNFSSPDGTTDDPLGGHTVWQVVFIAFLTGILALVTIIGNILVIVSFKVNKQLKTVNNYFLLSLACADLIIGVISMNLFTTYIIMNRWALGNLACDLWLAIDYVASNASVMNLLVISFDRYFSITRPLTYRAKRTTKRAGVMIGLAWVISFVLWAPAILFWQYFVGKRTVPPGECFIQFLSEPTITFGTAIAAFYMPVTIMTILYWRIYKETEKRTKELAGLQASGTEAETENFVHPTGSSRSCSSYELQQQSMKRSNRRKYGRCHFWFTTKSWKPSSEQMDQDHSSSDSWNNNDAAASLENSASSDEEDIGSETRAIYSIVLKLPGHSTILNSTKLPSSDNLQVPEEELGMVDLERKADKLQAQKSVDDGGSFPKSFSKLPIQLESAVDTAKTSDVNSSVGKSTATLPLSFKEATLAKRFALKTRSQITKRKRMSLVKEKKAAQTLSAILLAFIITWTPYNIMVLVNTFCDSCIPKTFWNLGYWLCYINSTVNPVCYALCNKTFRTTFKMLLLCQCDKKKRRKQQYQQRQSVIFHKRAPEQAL

| SMILES | IC50 [1] [µM] | IC50 [2] [µM] | IC50 [3] [µM] | IC50 [4] [nM] | EC50 [5] [nM] | EC50 [6] [nM] | EC50 [7] [nM] | EC50 [8] [nM] | EC50 [9] [nM] | IC50 [10] [nM] | Agonist index [11] |
| --- | --- | --- | --- | --- | --- | --- | --- | --- | --- | --- | --- |
| O=C1CCCN1CC#CCN1CCCC1 [OXOTREMORINE] | 0.093 | 2.3 | 0.084 | 1.2 |  |  |  |  |  |  |  |
| C#CCOc1noc2c1CNCCC2 | 0.023 | 0.48 | 0.082 |  | 140 | 6.7 | 130 | 950 | 30 | 0.75 | 104 |
| CCOc1noc2c1CNCCC2 | 0.018 | 0.53 | 0.14 |  | 95 | 41 | 500 |  | 67 | 3.4 | 25 |
| CC(C)Oc1noc2c1CNCCC2 | 0.013 | 0.37 | 0.36 |  |  |  |  |  |  | 11 | 5.4 |
| COc1noc2c1CNCCC2 | 0.39 | 6.4 | 0.35 |  | 460 | 43 | 620 | 4700 | 240 | 10 | 104 |
